Key:
[1] = Sensitivity of C21 and salts to light and water; type: physicochemical; conditions: C21 and salts thereof
[2] = system: model of obstructive lung disease (specifically COPD); conditions: cited from earlier work
subjects with IPF = experiment: Phase II, multi-centre, open-label, single-arm trial of the safety, efficacy and pharmacokinetics of C21 in subjects with IPF; conditions: for mean change in FVC from baseline: C21 100 mg b.i.d. orally (sodium salt capsules), observed data, FIG. 1
Experimental: The primary objective of the study is/was to investigate the safety of C21, 200 mg daily dose (100 mg b.i.d.) administered orally to subjects with IPF. The secondary objectives are/were to evaluate the effect on lung function decline of C21 and the pharmacokinetics of C21 at the same daily dose. Exploratory objectives include the investigation of a range of laboratory parameters as potential biomarkers of inflammation and fibrosis.
The primary endpoint of the trial is the nature and frequency of adverse events occurring over the trial period.
Secondary endpoints included changes from baseline in: • FVC (defined as the maximum amount of air that can be forcibly exhaled from the lungs after fully inhaling) at Weeks 12, 24 and 36; • plasma concentration of C21 and derived PK parameters evaluated in a sub-set of subjects.
C21 has been administered twice daily to the subjects for 36 weeks as follows: • morning dose: two 50 mg capsules (100 mg C21 or placebo) to be taken with a glass of water after minimum 2 hours fasting; and • afternoon/evening dose: two 50 mg capsules (100 mg C21 or placebo) to be taken with a glass of water after minimum 2 hours fasting. Subjects are required not to eat anything for 1 hour after taking the study drug.
The patients were enrolled to receive C21 (100 mg b.i.d.) for 36 weeks in total.

patients with IPF = conditions: over the period of a year; cited from earlier work
[3] = interim analysis, 21 subjects, C21 100 mg b.i.d.

| Compound | sensitivity to the combined presence of light and water [1] | effect on cigarette smoke-induced emphysema [2] | effect on lung functions [2] | mean change in FVC from baseline (subjects with IPF; 24 weeks) | difference in mean FVC change versus expected mean decline in untreated patients (subjects with IPF; 24 weeks, expected decline -120 mL, based on previously published IPF trials) | mean change in FVC from baseline (subjects with IPF; 36 weeks) | difference in mean FVC change versus expected mean decline in untreated patients (subjects with IPF; 36 weeks, expected decline -180 mL) | gastrointestinal signals (subjects with IPF; [3]) | overall safety profile (subjects with IPF; [3]) | related serious adverse events (subjects with IPF; [3]) | deaths in the ongoing trial (subjects with IPF; reported to be due to COVID-19 and not related to C21) | p value of slope (change in FVC scaled to 24 weeks, by visit, observed cases) versus expected mean in untreated patients (subjects with IPF; week 28) | p value of slope (change in FVC scaled to 24 weeks, by visit, observed cases) versus expected mean in untreated patients (subjects with IPF; week 32) | p value of slope (change in FVC scaled to 24 weeks, by visit, observed cases) versus expected mean in untreated patients (subjects with IPF; week 36) | reduction in the rate of decline in lung function (FVC measurements) (patients with IPF) |
| --- | --- | --- | --- | --- | --- | --- | --- | --- | --- | --- | --- | --- | --- | --- | --- |
| CCCCOC(=O)NS(=O)(=O)c1sc(CC(C)C)cc1-c1ccc(Cn2ccnc2)cc1 [C21, N-butyloxycarbonyl-3-(4-imidazol-1-ylmethylphenyl)-5-iso-butylthiophene-2-sulfonamide] | extreme sensitivity | prevented cigarette smoke-induced emphysema | improved lung functions | +250 mL | +371 mL | +750 mL | +930 mL | no gastrointestinal signals | no safety profile concerns | no related serious adverse events | 1 | 0.012 | 0.032 | 0.016 |  |
| COC(=O)c1ccc2c(c1)NC(=O)/C2=C(\Nc1ccc(N(C)C(=O)CN2CCN(C)CC2)cc1)c1ccccc1 [nintedanib] |  |  |  |  |  |  |  |  |  |  |  |  |  |  | approximately 50% |
| Cc1ccc(=O)n(-c2ccccc2)c1 [pirfenidone] |  |  |  |  |  |  |  |  |  |  |  |  |  |  | approximately 50% |
